Laboratory results from patent publication US7994163B2, “6-substituted-2,3,4,5-tetrahydro-1H-benzo[d]azepines as 5-HT2C receptor agonists” (Eli Lilly and Company, priority 2005, dated 2011).
Where a name gives a salt, the structure may show the parent alone.

Assays:
male NIH Swiss mice [1] = experiment: Nestlet shredding; type: in vivo; conditions: with motor effects (rotorod test)
Excerpt: Mice naturally will construct nests of material available in their living environment. Since this behavior is obsessive in nature, it has been used to model OCD (Xia Li, Denise Morrow and Jeffrey M. Witkin, “Decreases in nestlet shredding of mice by serotonin uptake inhibitors: comparison with marble burying”, Psychopharmacology, submitted Jul. 14, 2003). House experimentally-naïve male, NIH Swiss mice (Harlan Sprague-Dawley, Indianapolis, Ind.) weighing between 28-35 g in groups of 12 for at least three days prior to testing in a vivarium with a 12 h light/dark cycle. Conduct experiments during the light cycle in an experimental room with normal overhead fluorescent lighting. Dose mice with vehicle or test compound and after a specified pretreatment interval (generally 30 min.), place the mice individually in a 17×28×12 cm high plastic tub with about 5 mm sawdust shavings on the floor along with a pre-weighed multi-ply gauze pad (51 mm square). After 30 min., weigh the remainder of the gauze pad not removed by the mouse. Determine the weight of the gauze used for nestlet construction by subtraction. Compare the results for test compound treated mice to the results for vehicle control treated mice with Dunnett's test.
Clinically effective OCD treatment standard compounds suppress nestlet shredding at doses that are devoid of motor-impairing effects as measured by the rotorod test. […]

Wistar rats [2] = experiment: Schedule-induced polydipsia; conditions: rat, in vivo
Protocol: Maintain Wistar rats on a food restricted diet (to maintain 85% free feeding weight), but with free access to water. Train the rats in a behavioral testing chamber to press a lever to receive a food pellet under a fixed interval schedule, such that the rats are rewarded with a 45 mg food pellet the first time they press a lever after a 120 second interval has elapsed. The fixed interval is then reset to 120 seconds and the process repeated. Thus, during a 90 min. test session, the rats can earn a maximum of 45 pellets. The behavioral chamber is also equipped with a water bottle that is weighed before and after the session to determine the amount of water consumed.
Administer test compounds on Tuesdays and Fridays. Determine control day performances on Thursdays. Administer compounds either orally at 60 min. before the beginning of a test session, or subcutaneously at 20 min. before the beginning of a test session. Compare the rates of lever pressing and water consumption for each animal's performance during sessions after test compound treatment with that animal's performance during control sessions, expressed as a percent of the control rate. Average the individual percent of control rates for each dose and calculate the standard error of the mean. […]

Wistar rats [3] = conditions: general statement on standards; cited from earlier work
male NIH Swiss mice [4] = experiment: Marble burying assay (with rotorod); type: in vivo; conditions: with rotorod performance
Protocol: House experimentally-naïve male, NIH Swiss mice (Harlan Sprague-Dawley, Indianapolis, Ind.) weighing between 28-35 g in groups of 12 for at least three days prior to testing in a vivarium with 12 h light and dark cycles. Conduct experiments during the light cycle in a dimly lit experimental testing room. Dose mice with vehicle or test compound and, after a specified pretreatment interval (generally 30 min.), place each mouse individually on a rotorod (Ugo Basile 7650) operating at a speed of 6 revolutions/min. and observe for falling. After 2 min. on the rotorod, place the mice individually in a 17×28×12 cm high plastic tub with 5 mm sawdust shavings on the floor that are covered with 20 blue marbles (1.5 cm diameter) placed in the center. After 30 min., count the number of marbles buried (⅔ covered with sawdust). Assess the test compound's effect on marble burying with Dunnett's test and the effect on rotorod performance by Fisher's exact test.
Clinically effective standard compounds suppress marble burying at doses that are devoid of motor-impairing effects as measured on the rotorod. The in vivo efficacy of 5HT2C compounds at the 5HT2C receptor is confirmed by the prevention of effects of the 5HT2C agonists on marble burying by co-administration of the 5HT2C receptor antagonist, 6-chloro-5-methyl-N-{2-[(2-methylpyridin-3-yl-oxy)pyridin-5-yl]aminocarbonyl}-2,3-dihydroindole.

C[C@H](N)Cc1ccccc1 [d-amphetamine]
nestlet shredding (male NIH Swiss mice [1]): decreases nestlet shredding only at doses that produce motoric side effects
Effect of 5-HT2C antagonist co-administration on suppression of polydipsia (Wistar rats [2]): not prevented by the 5HT2C receptor antagonist
schedule-induced polydipsia (excessive drinking) (Wistar rats [2]): decreases excessive drinking only at behaviorally stimulating doses

Clc1ccc2c(c1CSc1ncc[nH]1)CCNCC2 (as salt: phosphate) (hydrate or solvate)
melting point: 243 to 245 °C

CN(C)CCCN1c2ccccc2CCc2ccc(Cl)cc21 [chlomipramine]
schedule-induced polydipsia, clinically effective OCD treatment standard compounds (Wistar rats [3]): suppress schedule-induced polydipsia without producing notable changes in motor patterns, food intake, or behavior the following day

CNCCC(Oc1ccc(C(F)(F)F)cc1)c1ccccc1 (stereo not shown) [fluoxetine]
schedule-induced polydipsia, clinically effective OCD treatment standard compounds (Wistar rats [3]): suppress schedule-induced polydipsia without producing notable changes in motor patterns, food intake, or behavior the following day

CN(C)CCCN1c2ccccc2Sc2ccc(Cl)cc21 [chlorpromazine]
marble burying behavior (male NIH Swiss mice [4]): decrease marble burying only at doses that also disrupt rotorod performance
